Here are results for 27 compounds from BindingDB's records for doi:10.1016/j.bmcl.2007.04.105 (Abbott Laboratories, 2007).

Chain of Transient receptor potential cation channel subfamily V member 1 (Q8NER1 whole entry): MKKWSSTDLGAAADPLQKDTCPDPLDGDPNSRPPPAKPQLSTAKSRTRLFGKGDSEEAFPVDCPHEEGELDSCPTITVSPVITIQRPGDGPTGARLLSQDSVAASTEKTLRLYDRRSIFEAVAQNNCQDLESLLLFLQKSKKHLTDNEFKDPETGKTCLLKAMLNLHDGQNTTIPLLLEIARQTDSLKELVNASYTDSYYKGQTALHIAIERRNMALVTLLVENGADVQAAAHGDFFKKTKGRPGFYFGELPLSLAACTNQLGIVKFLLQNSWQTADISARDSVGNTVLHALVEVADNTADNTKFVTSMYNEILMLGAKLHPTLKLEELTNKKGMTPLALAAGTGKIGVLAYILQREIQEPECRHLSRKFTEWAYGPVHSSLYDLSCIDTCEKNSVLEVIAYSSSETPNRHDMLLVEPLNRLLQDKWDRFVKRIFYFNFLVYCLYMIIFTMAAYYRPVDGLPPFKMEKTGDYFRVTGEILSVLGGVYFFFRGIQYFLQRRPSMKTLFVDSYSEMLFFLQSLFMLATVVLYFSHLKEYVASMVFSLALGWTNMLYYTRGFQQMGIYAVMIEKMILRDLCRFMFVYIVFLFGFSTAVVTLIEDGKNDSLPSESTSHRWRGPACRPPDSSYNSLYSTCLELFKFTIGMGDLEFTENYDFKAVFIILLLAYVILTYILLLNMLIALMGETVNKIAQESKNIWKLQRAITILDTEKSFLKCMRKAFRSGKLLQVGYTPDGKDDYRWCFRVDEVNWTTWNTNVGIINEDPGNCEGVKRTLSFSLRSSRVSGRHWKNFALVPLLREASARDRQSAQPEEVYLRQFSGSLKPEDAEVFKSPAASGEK

The test has as its target Transient receptor potential cation channel subfamily V member 1 (Homo sapiens, UniProt Q8NER1). The experiment in a line: Ca2+ Influx Functional Assay for the Determination of in Vitro Activity. The following applies: pH 7.4; 22 °C; read-out: EC50 (the source's name). On the procedure: The functional antagonist activity of compounds at the TRPV1 receptor was determined with a Ca2+ influx assay by measuring the effect on capsaicin (0.05 uM) evoked increase in intracellular Ca2+ levels using cells stably expressing recombinant human TRPV1. All compounds were tested over an 11-point half-log concentration range. The fluorescent Ca2+ chelating dye fluo-4 was used as an indicator of the relative levels of Ca2+ in a 96-well format using a fluorescence imaging plate reader. Fluorescence readings were made at 1-5 s intervals over the 240 s course of the experimental run. The peak increase in relative fluorescence units was calculated and expressed as a percentage of the 0.05 uM capsaicin (control) response. Curve fits of the data were solved using a four-parameter logistic Hill equation in GraphPad Prism, and IC50 values were calculated.
In the case of `CC(NC(=O)Nc1cccc2cnccc12)c1ccc(C(F)(F)F)cc1` (configuration not stated), the IC50 amounted to 22 nM.
`CC(NC(=O)Nc1cccc2[nH]ncc12)c1ccc(C(F)(F)F)cc1` (racemic) [3-1H-indazol-4-yl-1-{1-[4-(trifluoromethyl)phenyl]ethyl}urea]: the IC50 was 47 nM.
Next, `O=C(Nc1cccc2cnccc12)NC(c1ccccc1)c1ccccc1` [1-(diphenylmethyl)-3-isoquinolin-5-ylurea]: 600 nM; `CC(C)(C)c1ccc(C(NC(=O)Nc2cccc3cnccc23)c2ccccc2)cc1` (configuration not stated) [1-[(4-tert-butylphenyl)(phenyl)methyl]-3-isoquinolin-5-ylurea]: 125 nM; `CCC(NC(=O)Nc1cccc2cnccc12)c1ccccc1` (configuration not stated) [1-isoquinolin-5-yl-3-(1-phenylpropyl)urea]: 2580 nM.
Then `CC(C)(NC(=O)Nc1cccc2cnccc12)c1ccc(C(F)(F)F)cc1` [1-isoquinolin-5-yl-3-{2-[4-(trifluoromethyl)phenyl]propan-2-yl}urea], with 94 nM; and `O=C(Nc1cccc2cnccc12)NC(c1ccc(C(F)(F)F)cc1)C1CCCCC1` (configuration not stated) [1-{cyclohexyl[4-(trifluoromethyl)phenyl]methyl}-3-isoquinolin-5-ylurea], with 287 nM; and `Cc1ccc([C@@H](C)NC(=O)Nc2cccc3[nH]ncc23)cc1` [3-1H-indazol-4-yl-1-[(1R)-1-(4-methylphenyl)ethyl]urea], with 73 nM.
For the compound `C[C@@H](NC(=O)Nc1cccc2[nH]ncc12)c1ccc2ccccc2c1` [3-1H-indazol-4-yl-1-[(1R)-1-(naphthalen-2-yl)ethyl]urea], the IC50 turned out to be 123 nM.
Next, `C[C@@H](NC(=O)Nc1cccc2[nH]ncc12)c1ccc(C(F)(F)F)cc1` [3-1H-indazol-4-yl-1-[(1R)-1-[4-(trifluoromethyl)phenyl]ethyl]urea]: 41 nM; `Cc1ccc([C@H](C)NC(=O)Nc2cccc3[nH]ncc23)cc1` [3-1H-indazol-4-yl-1-[(1S)-1-(4-methylphenyl)ethyl]urea]: 749 nM; `C[C@H](NC(=O)Nc1cccc2[nH]ncc12)c1ccc2ccccc2c1` [3-1H-indazol-4-yl-1-[(1S)-1-(naphthalen-2-yl)ethyl]urea]: 3750 nM.
Take `C[C@H](NC(=O)Nc1cccc2[nH]ncc12)c1ccc(C(F)(F)F)cc1` [3-1H-indazol-4-yl-1-[(1S)-1-[4-(trifluoromethyl)phenyl]ethyl]urea]: the IC50 is 248 nM.
Then `N#CCC(NC(=O)Nc1cccc2cnccc12)c1ccccc1` (configuration not stated) [3-(2-cyano-1-phenylethyl)-1-isoquinolin-5-ylurea], with 15900 nM; and `CC(NC(=O)Nc1cccc2cnccc12)c1ccc(C(C)(C)C)cc1C(C)(C)C` (configuration not stated) [3-[1-(2,4-di-tert-butylphenyl)ethyl]-1-isoquinolin-5-ylurea], with 17 nM.
In the case of `CC(NC(=O)Nc1cccc2cnccc12)c1ccc(Br)cc1` (configuration not stated) [3-[1-(4-bromophenyl)ethyl]-1-isoquinolin-5-ylurea], the IC50 came to 26 nM.
Next, `CCc1cc(C(C)(C)C)ccc1C(C)NC(=O)Nc1cccc2cnccc12` (configuration not stated) [3-[1-(4-tert-butyl-2-ethylphenyl)ethyl]-1-isoquinolin-5-ylurea]: 20 nM.
Regarding `Cc1cc(C(C)(C)C)ccc1C(C)NC(=O)Nc1cccc2cnccc12` (configuration not stated) [3-[1-(4-tert-butyl-2-methylphenyl)ethyl]-1-isoquinolin-5-ylurea], the IC50 came out at 46 nM.
Next, `CC(NC(=O)Nc1cccc2cnccc12)c1ccc(C(C)(C)C)cc1` (configuration not stated) [3-[1-(4-tert-butylphenyl)ethyl]-1-isoquinolin-5-ylurea]: 24 nM.
Then `CC(C)(NC(=O)Nc1cccc2cnccc12)c1ccc(Cl)cc1` [3-[2-(4-chlorophenyl)propan-2-yl]-1-isoquinolin-5-ylurea], with 143 nM.
Next, `CN(C)CC(NC(=O)Nc1cccc2cnccc12)c1ccccc1` (configuration not stated) [3-[2-(dimethylamino)-1-phenylethyl]-1-isoquinolin-5-ylurea]: 31000 nM.
For the compound `O=C(Nc1cccc2cnccc12)NC(c1ccccc1)c1ccc(N2CCCCC2)cc1` (configuration not stated) [3-isoquinolin-5-yl-1-{phenyl[4-(piperidin-1-yl)phenyl]methyl}urea], the IC50 turned out to be 171 nM.
Next, `O=C(Nc1cccc2cnccc12)NC(c1ccccc1)c1ccc(C(F)(F)F)cc1` (configuration not stated) [3-isoquinolin-5-yl-1-{phenyl[4-(trifluoromethyl)phenyl]methyl}urea]: 147 nM; `CC(NC(=O)Nc1cccc2cnccc12)c1ccc(C(F)(F)F)c(F)c1` (configuration not stated) [3-{1-[3-fluoro-4-(trifluoromethyl)phenyl]ethyl}-1-isoquinolin-5-ylurea]: 19 nM.
Next, `CCC(NC(=O)Nc1cccc2cnccc12)c1ccc(C(F)(F)F)c(F)c1` (configuration not stated) [3-{1-[3-fluoro-4-(trifluoromethyl)phenyl]propyl}-1-isoquinolin-5-ylurea]: 109 nM; `O=C(Nc1cccc2cnccc12)NC(c1ccc(C(F)(F)F)cc1)C1CCCC1` (configuration not stated) [3-{cyclopentyl[4-(trifluoromethyl)phenyl]methyl}-1-isoquinolin-5-ylurea]: 476 nM; `O=C(Nc1cccc2cnccc12)NC(c1ccc(C(F)(F)F)cc1)C1CC1` (configuration not stated) [3-{cyclopropyl[4-(trifluoromethyl)phenyl]methyl}-1-isoquinolin-5-ylurea]: 149 nM.
